Laboratory results from article PMC6979384, “Characterization of the plant homeodomain (PHD) reader family for their histone tail interactions” (Epigenetics & Chromatin, 2020).

Tests used:
Assay in all cases: Histone peptide microarray
Type in all cases: binding, human
KDM5B (1) = tested on: KDM5B (1)
Method in brief: (§1)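 GST-tagged PHD finger readers were expressed, purified and applied at 0.5 μM to a microarray of 293 synthetic histone peptides carrying single or combinatorial PTMs, using an optimized protocol. Binding signals are averages with standard deviation from 4 replicates.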

DPF2 (PPC2W2) = tested on: DPF2 (PPC2W2)
Method in brief: as §1

KDM4C (TTP) = tested on: KDM4C (TTP)
Method in brief: as §1

MORC3 (CW) = tested on: MORC3 (CW)
Method in brief: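 GST-tagged PHD readers, 0.5 μM, probed on a microarray of 293 synthetic histone peptides carrying single or combinatorial PTMs (optimized Petell protocol). Signals are averaged over 4 replicates and expressed as relative binding.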

CHD5 (PCC) = tested on: CHD5 (PCC)
Method in brief: as §1

ING1 = tested on: ING1
Method in brief: as §1

PHF23 = tested on: PHF23
Method in brief: as §1

AIRE (PP) = tested on: AIRE (PP)
Method in brief: as §1

KDM5A (1) = tested on: KDM5A (1)
Method in brief: as §1

PHRF1 (RP) = tested on: PHRF1 (RP)
Method in brief: as §1

KDM5A (3) = tested on: KDM5A (3)
Method in brief: as §1

PHF21A = tested on: PHF21A
Method in brief: as §1

RAG2 = tested on: RAG2
Method in brief: as §1

ING4 = tested on: ING4
Method in brief: as §1

ING5 = tested on: ING5
Method in brief: as §1

PHF8 = tested on: PHF8
Method in brief: as §1

PHF2 = tested on: PHF2
Method in brief: as §1

ING2 = tested on: ING2
Method in brief: as §1

ING3 = tested on: ING3
Method in brief: as §1

PHF13 = tested on: PHF13
Method in brief: as §1

MLL5 = tested on: MLL5
Method in brief: as §1

CHD5 (PPCC) = tested on: CHD5 (PPCC)
Method in brief: as §1

DIDO1 = tested on: DIDO1
Method in brief: as §1

BAZ2B = tested on: BAZ2B
Method in brief: as §1

BPTF (PB) = tested on: BPTF (PB)
Method in brief: as §1

KDM7A = tested on: KDM7A
Method in brief: as §1

KDM5B (3) = tested on: KDM5B (3)
Method in brief: as §1

CHD4 (PPCC) = tested on: CHD4 (PPCC)
Method in brief: as §1

TRIM66 (PB) = tested on: TRIM66 (PB)
Method in brief: as §1

TAF3 = tested on: TAF3
Method in brief: as §1

SP140L = tested on: SP140L
Method in brief: as §1

In the case of H4S1p + R3me2a: H4 1-23, the “Array Heatmap signal, KDM5B (1)” value (KDM5B (1); GST-tagged KDM5B (1), histone peptide array, arrays performed twice, n of 4) is reported as 0.7314, the “Array Heatmap signal, DPF2 (PPC2W2)” value (DPF2 (PPC2W2); GST-tagged DPF2 (PPC2W2 = Dual PHD + C2W2-type Zn-finger), histone peptide array, arrays performed twice, n of 4) is reported as 0.7324 and the “Array Heatmap signal, KDM4C (TTP)” value (KDM4C (TTP); GST-tagged KDM4C (TTP = Tandem Tudor domain + PHD), histone peptide array, arrays performed twice, n of 4) is reported as 0.5709. The “Array Heatmap signal, MORC3 (CW)” value (MORC3 (CW); GST-tagged MORC3 (CW = CW-type Zn-finger), histone peptide array, arrays performed twice, n of 4) was 0.5537, the “Array Heatmap signal, CHD5 (PCC)” value (CHD5 (PCC); GST-tagged CHD5 (PCC = PHD + Dual Chromodomain), histone peptide array, arrays performed twice, n of 4) was 0.908 and the “Array Heatmap signal, ING1” value (ING1; GST-tagged ING1, histone peptide array, arrays performed twice, n of 4) was 0.5568. The “Array Heatmap signal, PHF23” value (PHF23; GST-tagged PHF23, histone peptide array, arrays performed twice, n of 4) was 0.6265, the “Array Heatmap signal, AIRE (PP)” value (AIRE (PP); GST-tagged AIRE (PP), histone peptide array, arrays performed twice, n of 4) was 0.6422 and the “Array Heatmap signal, KDM5A (1)” value (KDM5A (1); GST-tagged KDM5A (1), histone peptide array, arrays performed twice, n of 4) was 0.5298. For the same substance, the “Array Heatmap signal, PHRF1 (RP)” value (PHRF1 (RP); GST-tagged PHRF1 (RP), histone peptide array, arrays performed twice, n of 4) was 0.5062, the “Array Heatmap signal, KDM5A (3)” value (KDM5A (3); GST-tagged KDM5A (3), histone peptide array, arrays performed twice, n of 4) was 0.5495 and the “Array Heatmap signal, PHF21A” value (PHF21A; GST-tagged PHF21A, histone peptide array, arrays performed twice, n of 4) was 0.4964. The “Array Heatmap signal, RAG2” value (RAG2; GST-tagged RAG2, histone peptide array, arrays performed twice, n of 4) was 0.4591, the “Array Heatmap signal, ING4” value (ING4; GST-tagged ING4, histone peptide array, arrays performed twice, n of 4) was 0.5743 and the “Array Heatmap signal, ING5” value (ING5; GST-tagged ING5, histone peptide array, arrays performed twice, n of 4) was 0.4163. The “Array Heatmap signal, PHF8” value (PHF8; GST-tagged PHF8, histone peptide array, arrays performed twice, n of 4) was 0.44, the “Array Heatmap signal, PHF2” value (PHF2; GST-tagged PHF2, histone peptide array, arrays performed twice, n of 4) was 0.5511 and the “Array Heatmap signal, ING2” value (ING2; GST-tagged ING2, histone peptide array, arrays performed twice, n of 4) was 0.6378. The “Array Heatmap signal, ING3” value (ING3; GST-tagged ING3, histone peptide array, arrays performed twice, n of 4) was 0.5499, the “Array Heatmap signal, PHF13” value (PHF13; GST-tagged PHF13, histone peptide array, arrays performed twice, n of 4) was 0.7049 and the “Array Heatmap signal, MLL5” value (MLL5; GST-tagged MLL5, histone peptide array, arrays performed twice, n of 4) was 0.6348. For the same substance, the “Array Heatmap signal, CHD5 (PPCC)” value (CHD5 (PPCC); GST-tagged CHD5 (PPCC = Dual PHD + Dual Chromodomain), histone peptide array, arrays performed twice, n of 4) was 0.617, the “Array Heatmap signal, DIDO1” value (DIDO1; GST-tagged DIDO1, histone peptide array, arrays performed twice, n of 4) was 0.8161 and the “Array Heatmap signal, BAZ2B” value (BAZ2B; GST-tagged BAZ2B, histone peptide array, arrays performed twice, n of 4) was 0.5882. For the same substance, the “Array Heatmap signal, BPTF (PB)” value (BPTF (PB); GST-tagged BPTF (PB = PHD + Bromodomain), histone peptide array, arrays performed twice, n of 4) was 0.4592, the “Array Heatmap signal, KDM7A” value (KDM7A; GST-tagged KDM7A, histone peptide array, arrays performed twice, n of 4) was 0.485 and the “Array Heatmap signal, KDM5B (3)” value (KDM5B (3); GST-tagged KDM5B (3), histone peptide array, arrays performed twice, n of 4) was 0.6926. The “Array Heatmap signal, CHD4 (PPCC)” value (CHD4 (PPCC); GST-tagged CHD4 (PPCC = Dual PHD + Dual Chromodomain), histone peptide array, arrays performed twice, n of 4) was 0.6213, the “Array Heatmap signal, TRIM66 (PB)” value (TRIM66 (PB); GST-tagged TRIM66 (PB = PHD + Bromodomain), histone peptide array, arrays performed twice, n of 4) was 0.7721 and the “Array Heatmap signal, TAF3” value (TAF3; GST-tagged TAF3, histone peptide array, arrays performed twice, n of 4) was 0.5622. The “Array Heatmap signal, SP140L” value (SP140L; GST-tagged SP140L, histone peptide array, arrays performed twice, n of 4) was 0.4294.
In the case of H3K9pro: H3 1-20 [Peptide H3K9pro], the “Array Heatmap value (peptide array signal)” value (shortened to “Array Heatmap value”) (KDM5B (1); KDM5B (1), sheet "Array Heatmap", each array performed twice, total n = 4) is reported as 0.6726, the “Array Heatmap value” value (DPF2 (PPC2W2); DPF2 (PPC2W2), sheet "Array Heatmap", each array performed twice, total n = 4) is reported as 0.7007 and the “Array Heatmap value” value (KDM4C (TTP); KDM4C (TTP), sheet "Array Heatmap", each array performed twice, total n = 4) is reported as 0.4589. The “Array Heatmap value” value (MORC3 (CW); MORC3 (CW), sheet "Array Heatmap", each array performed twice, total n = 4) was 0.4445, the “Array Heatmap value” value (CHD5 (PCC); CHD5 (PCC), sheet "Array Heatmap", each array performed twice, total n = 4) was 0.7611 and the “Array Heatmap value” value (ING1; ING1, sheet "Array Heatmap", each array performed twice, total n = 4) was 0.5254. The “Array Heatmap value” value (PHF23; PHF23, sheet "Array Heatmap", each array performed twice, total n = 4) was 0.5285, the “Array Heatmap value” value (AIRE (PP); AIRE (PP), sheet "Array Heatmap", each array performed twice, total n = 4) was 0.411 and the “Array Heatmap value” value (KDM5A (1); KDM5A (1), sheet "Array Heatmap", each array performed twice, total n = 4) was 0.4409. The “Array Heatmap value” value (PHRF1 (RP); PHRF1 (RP), sheet "Array Heatmap", each array performed twice, total n = 4) was 0.5869, the “Array Heatmap value” value (KDM5A (3); KDM5A (3), sheet "Array Heatmap", each array performed twice, total n = 4) was 0.4398 and the “Array Heatmap value” value (PHF21A; PHF21A, sheet "Array Heatmap", each array performed twice, total n = 4) was 0.4435. The “Array Heatmap value” value (RAG2; RAG2, sheet "Array Heatmap", each array performed twice, total n = 4) was 0.2419, the “Array Heatmap value” value (ING4; ING4, sheet "Array Heatmap", each array performed twice, total n = 4) was 0.4451 and the “Array Heatmap value” value (ING5; ING5, sheet "Array Heatmap", each array performed twice, total n = 4) was 0.3309. For the same substance, the “Array Heatmap value” value (PHF8; PHF8, sheet "Array Heatmap", each array performed twice, total n = 4) was 0.3451, the “Array Heatmap value” value (PHF2; PHF2, sheet "Array Heatmap", each array performed twice, total n = 4) was 0.4692 and the “Array Heatmap value” value (ING2; ING2, sheet "Array Heatmap", each array performed twice, total n = 4) was 0.6039. For the same substance, the “Array Heatmap value” value (ING3; ING3, sheet "Array Heatmap", each array performed twice, total n = 4) was 0.4734, the “Array Heatmap value” value (PHF13; PHF13, sheet "Array Heatmap", each array performed twice, total n = 4) was 0.5854 and the “Array Heatmap value” value (MLL5; MLL5, sheet "Array Heatmap", each array performed twice, total n = 4) was 0.5292. The “Array Heatmap value” value (CHD5 (PPCC); CHD5 (PPCC), sheet "Array Heatmap", each array performed twice, total n = 4) was 0.5229, the “Array Heatmap value” value (DIDO1; DIDO1, sheet "Array Heatmap", each array performed twice, total n = 4) was 0.6439 and the “Array Heatmap value” value (BAZ2B; BAZ2B, sheet "Array Heatmap", each array performed twice, total n = 4) was 0.4231. The “Array Heatmap value” value (BPTF (PB); BPTF (PB), sheet "Array Heatmap", each array performed twice, total n = 4) was 0.3368, the “Array Heatmap value” value (KDM7A; KDM7A, sheet "Array Heatmap", each array performed twice, total n = 4) was 0.3118 and the “Array Heatmap value” value (KDM5B (3); KDM5B (3), sheet "Array Heatmap", each array performed twice, total n = 4) was 0.4382. For the same substance, the “Array Heatmap value” value (CHD4 (PPCC); CHD4 (PPCC), sheet "Array Heatmap", each array performed twice, total n = 4) was 0.5901, the “Array Heatmap value” value (TRIM66 (PB); TRIM66 (PB), sheet "Array Heatmap", each array performed twice, total n = 4) was 0.5807 and the “Array Heatmap value” value (TAF3; TAF3, sheet "Array Heatmap", each array performed twice, total n = 4) was 0.2557. For the same substance, the “Array Heatmap value” value (SP140L; SP140L, sheet "Array Heatmap", each array performed twice, total n = 4) was 0.3673.
